Experimental data as given in the supplement of paper PMC4862054.
“And” between values parts separate entries of the source, which are not always exact repeats. Identical values can stand only once.

tested on: SK-BR-3; experiment: normalised viability (% of control), CellTiter-Blue; higher = more viable cells (about 100 = DMSO control); conditions: 100 nM; incubation time: 72 h
Method: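 DSRT, CellTiter-Blue viability, 72 h incubation. Signal is normalised to DMSO and benzethonium chloride controls. Value is the normalised response at dose 3.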

Row | Structure (SMILES) | normalised viability
1 | O=C(O)C1(C(=O)O)CCC1.[NH2-].[NH2-].[Pt+2] [Carboplatin] | 91.1%
2 | N#Cc1ccc(C(c2ccc(C#N)cc2)n2cncn2)cc1 [Letrozole] | 83%
3 | C1CN1c1nc(N2CC2)nc(N2CC2)n1 [Triethylenemelamine] | 95.5%
4 | CCCS(=O)(=O)Nc1ccc(F)c(C(=O)c2c[nH]c3ncc(-c4ccc(Cl)cc4)cc23)c1F [Vemurafenib] | 96.9%
5 | O=C(O)C(=O)O.[NH-][C@@H]1CCCC[C@H]1[NH-].[Pt+2] [Oxaliplatin] | 94%
6 | CCN(CC)CCCC(C)Nc1c2ccc(Cl)cc2nc2ccc(OC)cc12 (stereo not given) [Mepacrine] | 91.3%
7 | Cc1ccc(-c2cc(C(F)(F)F)nn2-c2ccc(S(N)(=O)=O)cc2)cc1 [Celecoxib] | 83.3%
8 | NCCCNCCSP(=O)(O)O [Amifostine] | 108%

tested on: CAL-148; experiment: as above; conditions: 99 nM; incubation time: 72 h
Method: (§1)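 DSRT, CellTiter-Blue viability, 72 h incubation. Signal is normalised to DMSO and benzethonium chloride controls. Value is the normalised response at dose 7.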

Row | Structure (SMILES) | normalised viability
9 | CCN(CC)CCCC(C)Nc1c2ccc(Cl)cc2nc2ccc(OC)cc12 (stereo not given) [Mepacrine] | 122%

same assay, conditions: 100 nM; incubation time: 72 h

Row | Structure (SMILES) | normalised viability
10 | O=C(/C=C/c1cccnc1)NCCCCC1CCN(C(=O)c2ccccc2)CC1 [FK-866] | 53.7%
11 | CC[C@@H]1C(=O)N(C)c2cnc(Nc3ccc(C(=O)NC4CCN(C)CC4)cc3OC)nc2N1C1CCCC1 [BI 2536] | 28.3%

same assay, conditions: 1000 nM; incubation time: 72 h

Row | Structure (SMILES) | normalised viability
12 | Nc1nc(F)nc2c1ncn2[C@@H]1O[C@H](CO)[C@@H](O)[C@@H]1O [Fludarabine] | 93.8%
13 | Nc1ncn([C@H]2C[C@H](O)[C@@H](CO)O2)c(=O)n1 [Decitabine] | 75.2% and 75%
14 | O=C(O)C1(C(=O)O)CCC1.[NH2-].[NH2-].[Pt+2] [Carboplatin] | 103%
15 | N#Cc1ccc(C(c2ccc(C#N)cc2)n2cncn2)cc1 [Letrozole] | 86%
16 | C1CN1c1nc(N2CC2)nc(N2CC2)n1 [Triethylenemelamine] | 110%
17 | CCCS(=O)(=O)Nc1ccc(F)c(C(=O)c2c[nH]c3ncc(-c4ccc(Cl)cc4)cc23)c1F [Vemurafenib] | 93.9%
18 | O=C(O)C(=O)O.[NH-][C@@H]1CCCC[C@H]1[NH-].[Pt+2] [Oxaliplatin] | 125%
19 | CCN(CC)CCCC(C)Nc1c2ccc(Cl)cc2nc2ccc(OC)cc12 (stereo not given) [Mepacrine] | 81.4%
20 | Cc1ccc(-c2cc(C(F)(F)F)nn2-c2ccc(S(N)(=O)=O)cc2)cc1 [Celecoxib] | 75.5%
21 | NCCCNCCSP(=O)(O)O [Amifostine] | 90.6%

tested on: CAL-51; experiment: as above; conditions: 99 nM; incubation time: 72 h
Method: as §1

Row | Structure (SMILES) | normalised viability
22 | CCN(CC)CCCC(C)Nc1c2ccc(Cl)cc2nc2ccc(OC)cc12 (stereo not given) [Mepacrine] | 96.2%

same assay, conditions: 100 nM; incubation time: 72 h

Row | Structure (SMILES) | normalised viability
23 | O=C(/C=C/c1cccnc1)NCCCCC1CCN(C(=O)c2ccccc2)CC1 [FK-866] | 44.3%
24 | CC[C@@H]1C(=O)N(C)c2cnc(Nc3ccc(C(=O)NC4CCN(C)CC4)cc3OC)nc2N1C1CCCC1 [BI 2536] | 12.1%

same assay, conditions: 1000 nM; incubation time: 72 h

Row | Structure (SMILES) | normalised viability
25 | Nc1nc(F)nc2c1ncn2[C@@H]1O[C@H](CO)[C@@H](O)[C@@H]1O [Fludarabine] | 102%
26 | Nc1ncn([C@H]2C[C@H](O)[C@@H](CO)O2)c(=O)n1 [Decitabine] | 107% and 98.7%
27 | O=C(O)C1(C(=O)O)CCC1.[NH2-].[NH2-].[Pt+2] [Carboplatin] | 99.9%
28 | N#Cc1ccc(C(c2ccc(C#N)cc2)n2cncn2)cc1 [Letrozole] | 106%
29 | C1CN1c1nc(N2CC2)nc(N2CC2)n1 [Triethylenemelamine] | 104%
30 | CCCS(=O)(=O)Nc1ccc(F)c(C(=O)c2c[nH]c3ncc(-c4ccc(Cl)cc4)cc23)c1F [Vemurafenib] | 93.2%
31 | O=C(O)C(=O)O.[NH-][C@@H]1CCCC[C@H]1[NH-].[Pt+2] [Oxaliplatin] | 91.1%
32 | CCN(CC)CCCC(C)Nc1c2ccc(Cl)cc2nc2ccc(OC)cc12 (stereo not given) [Mepacrine] | 103%
33 | Cc1ccc(-c2cc(C(F)(F)F)nn2-c2ccc(S(N)(=O)=O)cc2)cc1 [Celecoxib] | 93.5%
34 | NCCCNCCSP(=O)(O)O [Amifostine] | 109%

tested on: CAL-85-1; experiment: as above; conditions: 99 nM; incubation time: 72 h
Method: as §1

Row | Structure (SMILES) | normalised viability
35 | CCN(CC)CCCC(C)Nc1c2ccc(Cl)cc2nc2ccc(OC)cc12 (stereo not given) [Mepacrine] | 97.8%

same assay, conditions: 100 nM; incubation time: 72 h

Row | Structure (SMILES) | normalised viability
36 | O=C(/C=C/c1cccnc1)NCCCCC1CCN(C(=O)c2ccccc2)CC1 [FK-866] | 54.6%
37 | CC[C@@H]1C(=O)N(C)c2cnc(Nc3ccc(C(=O)NC4CCN(C)CC4)cc3OC)nc2N1C1CCCC1 [BI 2536] | 59.4%

same assay, conditions: 1000 nM; incubation time: 72 h

Row | Structure (SMILES) | normalised viability
38 | Nc1nc(F)nc2c1ncn2[C@@H]1O[C@H](CO)[C@@H](O)[C@@H]1O [Fludarabine] | 93.8%
39 | Nc1ncn([C@H]2C[C@H](O)[C@@H](CO)O2)c(=O)n1 [Decitabine] | 78.2% and 89.6%
40 | O=C(O)C1(C(=O)O)CCC1.[NH2-].[NH2-].[Pt+2] [Carboplatin] | 81.5%
41 | N#Cc1ccc(C(c2ccc(C#N)cc2)n2cncn2)cc1 [Letrozole] | 84.8%
42 | C1CN1c1nc(N2CC2)nc(N2CC2)n1 [Triethylenemelamine] | 98.4%
43 | CCCS(=O)(=O)Nc1ccc(F)c(C(=O)c2c[nH]c3ncc(-c4ccc(Cl)cc4)cc23)c1F [Vemurafenib] | 83.8%
44 | O=C(O)C(=O)O.[NH-][C@@H]1CCCC[C@H]1[NH-].[Pt+2] [Oxaliplatin] | 93.2%
45 | CCN(CC)CCCC(C)Nc1c2ccc(Cl)cc2nc2ccc(OC)cc12 (stereo not given) [Mepacrine] | 90.3%
